Laboratory results taken from publication PMC6946680, “Modulation of brain cation-Cl^− cotransport via the SPAK kinase inhibitor ZT-1a” (Nature Communications, 2020).
“And” between values parts separate entries of the source, which are not always exact repeats. Equal entries are not always repeated.

How the values were obtained:
SPAK pSer373 = experiment: Immunoblot of SPAK/OSR1 p-Ser373/Ser325 in HEK-293 cells; format: cell-based, human
Protocol: (§1) Band intensities were quantitated with ImageJ software. ***p < 0.001; **p < 0.01; *p < 0.05; ns, nonsignificant [by one-way ANOVA with post hoc testing (n = 6, error bars represent the mean ± SEM)].
(§2) Thirty-six hours post transfection, cells were stimulated with either control isotonic or hypotonic medium for a period of 30 min. […] Protein concentrations were determined using the Bradford method. Cells were treated with the indicated concentrations of the SPAK/OSR1 inhibitors.

NKCC1 pThr203/207/212 = experiment: Immunoblot of NKCC1 p-Thr203/Thr207/Thr212 in HEK-293 cells; format: cell-based, human
Protocol: as §1, §2

KCC3 pThr991 = experiment: Immunoblot of KCC site 1 phosphorylation (KCC3 Thr991) in HEK-293 cells transfected with FLAG-KCC3; format: cell-based, human
KCC3 pThr1048 = experiment: Immunoblot of KCC site 2 phosphorylation (KCC3 Thr1048) in HEK-293 cells transfected with FLAG-KCC3; format: cell-based, human
GST–[T233E]SPAK kinase = target: T1, GST–[T233E]SPAK kinase (Homo sapiens, UniProt Q9UEW8, T231E); experiment: SPAK kinase assay with CATCHtide and IC50 determination; format: biochemical
T1 construct: made in house; host or cells: E. coli
Description: II. Experimental procedures
1. Reagents and General methods
Tissue culture reagents were from Life Technologies. P81 phosphocellulose paper was from Whatman […]
and [γ-32P]-ATP was from Perkin Elmer. […] Protein G […]
sepharose was from Amersham. DNA constructs used for transfection were purified from Escherichia coli DH5α using Qiagen or Invitrogen plasmid Maxi kits according to the manufacturer's protocol. All DNA constructs were verified by DNA sequencing.
2. Plasmids, protein expression and purification
DNA clones were from the Division of Signal Transduction Therapy (University of Dundee). The SPAK proteins were expressed in E. Coli and purified as described previously 1.
3. SPAK kinase assays and IC50 determination
SPAK kinase assays employed CATCHtide (cation chloride co-transporter peptide substrate). Peptide kinase assays, performed in triplicate, were set up in a total volume of 50 μl containing 0.5 μg GST– […]
cpm/pmol) and the indicated concentrations of inhibitor dissolved in DMSO. After incubation for 30 min at 30°C, reactions were terminated by spotting 40 μl of the reaction mix onto P81 phosphocellulose paper and immersion in 50 mM phosphoric acid. The papers were washed extensively and incorporation of [γ-32P]ATP into CATCHtide was quantified by Cerenkov counting.
IC50 values were calculated with GraphPad Prism using non-linear regression analysis.
4. Fluorescence polarization […]
concentrations between 0.00001 to 1 mM. Data points are the means of three determinations, with error […]
A Supplemental Fig. 7 Effects of increasing concentrations of ZT-1a on SPAK activity in the absence […]
the absence or presence of five-fold molar excess of wild-type MO25α. b Kinetic data determined for B ZT-1a in the absence or presence of five-fold molar excess of wild-type MO25α. Data are means of […]
presence of wild-type MO25α.

[1] = Hypotonic low Cl, compound concentration 1 (unit not given)
[2] = Hypotonic low Cl, compound concentration 3 (unit not given)
[3] = Hypotonic low Cl, compound concentration 10 (unit not given)
[4] = Isotonic control, compound concentration 1 (unit not given)
[5] = Isotonic control, compound concentration 10 (unit not given)
[6] = Isotonic control, compound concentration 3 (unit not given)

## Cc1cc(C(C#N)c2ccc(Cl)cc2)c(Cl)cc1NC(=O)c1cc(F)ccc1O (stereo not shown) [ZT-1g]
SPAK pSer373; [1]
  pSer373 / SPAK: 0.101 and 0.097 and 0.112 and 0.0903
SPAK pSer373; [2]
  pSer373 / SPAK: 0.058 and 0.071 and 0.066 and 0.078
SPAK pSer373; [3]
  pSer373 / SPAK: 0.044 and 0.027 and 0.035 and 0.041
SPAK pSer373; [4]
  pSer373 / SPAK: 0.034 and 0.041 and 0.029 and 0.046
SPAK pSer373; [5]
  pSer373 / SPAK: 0.017 and 0.015 and 0.013 and 0.016
NKCC1 pThr203/207/212; [1]
  pThrNKCC1 / NKCC1: 0.41 and 0.38 and 0.36 and 0.43
NKCC1 pThr203/207/212; [2]
  pThrNKCC1 / NKCC1: 0.21 and 0.19 and 0.176 and 0.196
NKCC1 pThr203/207/212; [3]
  pThrNKCC1 / NKCC1: 0.1 and 0.064 and 0.089 and 0.097
NKCC1 pThr203/207/212; [4]
  pThrNKCC1 / NKCC1: 0.306 and 0.28 and 0.251 and 0.293
NKCC1 pThr203/207/212; [6]
  pThrNKCC1 / NKCC1: 0.167 and 0.134 and 0.121 and 0.172
NKCC1 pThr203/207/212; [5]
  pThrNKCC1 / NKCC1: 0.035 and 0.039 and 0.045 and 0.032
KCC3 pThr991; [1]
  Site-1 phospho / KCC: 1.44 and 1.512 and 1.37 and 1.612
KCC3 pThr991; [2]
  Site-1 phospho / KCC: 1.67 and 1.55 and 1.71 and 1.58
KCC3 pThr991; [3]
  Site-1 phospho / KCC: 1.28 and 1.109 and 1.16 and 1.25
KCC3 pThr991; [4]
  Site-1 phospho / KCC: 1.31 and 1.461 and 1.597 and 1.37
KCC3 pThr991; [6]
  Site-1 phospho / KCC: 1.16 and 1.27 and 1.05 and 1.23
KCC3 pThr991; [5]
  Site-1 phospho / KCC: 0.79 and 0.93 and 0.85 and 0.712
KCC3 pThr1048; [1]
  Site-2 phospho / KCC: 0.321 and 0.39 and 0.36 and 0.315
KCC3 pThr1048; [2]
  Site-2 phospho / KCC: 0.263 and 0.275 and 0.22 and 0.253
KCC3 pThr1048; [3]
  Site-2 phospho / KCC: 0.1 and 0.116 and 0.092 and 0.107
KCC3 pThr1048; [4]
  Site-2 phospho / KCC: 0.389 and 0.326 and 0.357 and 0.301
KCC3 pThr1048; [6]
  Site-2 phospho / KCC: 0.233 and 0.197 and 0.175 and 0.227
KCC3 pThr1048; [5]
  Site-2 phospho / KCC: 0.104 and 0.076 and 0.11 and 0.095

## CN[C@@H]1C[C@H]2O[C@@](C)([C@@H]1OC)n1c3ccccc3c3c4c(c5c6ccccc6n2c5c31)C(=O)NC4 [staurosporine, reference compound]
GST–[T233E]SPAK kinase; ATP 0.01 mM, inhibitor 1e-5 uM
  SPAK kinase activity signal (Fig S3 source data): 880 and 902
GST–[T233E]SPAK kinase; ATP 0.01 mM, inhibitor 0.0001 uM
  SPAK kinase activity signal (Fig S3 source data): 874
GST–[T233E]SPAK kinase; ATP 0.01 mM, inhibitor 0.001 uM
  SPAK kinase activity signal (Fig S3 source data): 875
GST–[T233E]SPAK kinase; ATP 0.01 mM, inhibitor 0.03 uM
  SPAK kinase activity signal (Fig S3 source data): 535 and 689 and 604
GST–[T233E]SPAK kinase; ATP 0.01 mM, inhibitor 0.1 uM
  SPAK kinase activity signal (Fig S3 source data): 405 and 495 and 442
GST–[T233E]SPAK kinase; ATP 0.01 mM, inhibitor 0.3 uM
  SPAK kinase activity signal (Fig S3 source data): 385 and 459 and 417
GST–[T233E]SPAK kinase; ATP 0.01 mM, inhibitor 1 uM
  SPAK kinase activity signal (Fig S3 source data): 408 and 363
GST–[T233E]SPAK kinase; ATP 0.01 mM, inhibitor 10 uM
  SPAK kinase activity signal (Fig S3 source data): 206 and 221
GST–[T233E]SPAK kinase; ATP 0.01 mM, inhibitor 100 uM
  SPAK kinase activity signal (Fig S3 source data): 109 and 126
GST–[T233E]SPAK kinase; ATP 0.01 mM, inhibitor 1000 uM
  SPAK kinase activity signal (Fig S3 source data): 95 and 64 and 75
GST–[T233E]SPAK kinase; ATP 0.1 mM, inhibitor 1e-5 uM
  SPAK kinase activity signal (Fig S3 source data): 880 and 897
GST–[T233E]SPAK kinase; ATP 0.1 mM, inhibitor 0.0001 uM
  SPAK kinase activity signal (Fig S3 source data): 874
GST–[T233E]SPAK kinase; ATP 0.1 mM, inhibitor 0.001 uM
  SPAK kinase activity signal (Fig S3 source data): 875 and 869
GST–[T233E]SPAK kinase; ATP 0.1 mM, inhibitor 0.03 uM
  SPAK kinase activity signal (Fig S3 source data): 715
GST–[T233E]SPAK kinase; ATP 0.1 mM, inhibitor 0.1 uM
  SPAK kinase activity signal (Fig S3 source data): 705 and 625 and 675
GST–[T233E]SPAK kinase; ATP 0.1 mM, inhibitor 0.3 uM
  SPAK kinase activity signal (Fig S3 source data): 565 and 509 and 529
GST–[T233E]SPAK kinase; ATP 0.1 mM, inhibitor 1 uM
  SPAK kinase activity signal (Fig S3 source data): 453 and 458 and 431
GST–[T233E]SPAK kinase; ATP 0.1 mM, inhibitor 3 uM
  SPAK kinase activity signal (Fig S3 source data): 389 and 363
GST–[T233E]SPAK kinase; ATP 0.1 mM, inhibitor 100 uM
  SPAK kinase activity signal (Fig S3 source data): 112 and 127
GST–[T233E]SPAK kinase; ATP 0.1 mM, inhibitor 1000 uM
  SPAK kinase activity signal (Fig S3 source data): 114 and 95
GST–[T233E]SPAK kinase; ATP 1 mM, inhibitor 1e-5 uM
  SPAK kinase activity signal (Fig S3 source data): 880
GST–[T233E]SPAK kinase; ATP 1 mM, inhibitor 0.0001 uM
  SPAK kinase activity signal (Fig S3 source data): 874
GST–[T233E]SPAK kinase; ATP 1 mM, inhibitor 0.001 uM
  SPAK kinase activity signal (Fig S3 source data): 875
GST–[T233E]SPAK kinase; ATP 1 mM, inhibitor 0.3 uM
  SPAK kinase activity signal (Fig S3 source data): 714 and 703
GST–[T233E]SPAK kinase; ATP 1 mM, inhibitor 1 uM
  SPAK kinase activity signal (Fig S3 source data): 504 and 558 and 522
GST–[T233E]SPAK kinase; ATP 1 mM, inhibitor 3 uM
  SPAK kinase activity signal (Fig S3 source data): 489 and 412 and 459
GST–[T233E]SPAK kinase; ATP 1 mM, inhibitor 10 uM
  SPAK kinase activity signal (Fig S3 source data): 406 and 421 and 391
GST–[T233E]SPAK kinase; ATP 1 mM, inhibitor 100 uM
  SPAK kinase activity signal (Fig S3 source data): 356
GST–[T233E]SPAK kinase; ATP 1 mM, inhibitor 1000 uM
  SPAK kinase activity signal (Fig S3 source data): 214 and 183
